Experimental data: patent US20100108083A1, “USE OF MEANS FOR TRAPPING CO2 IN A FILTER FOR PREVENTING INFLAMMATION, CANCER AND CARDIOVASCULAR DISEASES IN A SUBJECT EXPOSED TO TOBACCO SMOKE” (priority 2007, published 2010)

Legend:
[1] = test system: BALB/c mice; conditions: CO2 of tobacco smoke selectively trapped by the filter, 38 minutes inhalation
Experimental: The experiment was conducted on BALB/c mice aged from 6 to 7 weeks under in vivo conditions. The number of mice used was 32 males, divided into four groups of eight. […] Each experiment lasted 38 minutes, or typically the equivalent of the consumption of 5 cigarettes by a smoker.
The mice were sacrificed after inhalation of air for 38 minutes in the four situations described above (see also the commentary of FIG. 3) and the lungs were removed immediately for analysis.
The lungs were analysed in order to measure the activity or the secretion of six proteins that are known markers of inflammation. […] These proteins are as follows: RANTES, IL-6, TNF-alpha, MIP-2, PP2A and NE-κB p65. […] Measurements of activity or of relative concentration of these proteins were performed using the following commercial kits: Mouse TNF-alpha/TNFSF1A DuoSet (ELISA assay for the concentration of TNF-alpha); Mouse CXCL2/MIP-2 DuoSet (ELISA assay for the concentration of MIP-2), Mouse CCL5/RANTES ELISpot Kit (ELISpot assay for the secretion of RANTES); Mouse IL-6 ELISpot Kit (ELISpot assay for the secretion of IL-6), all from R&D Systems (Minneapolis, Minn., USA).

[2] = test system: BALB/c mice; test: Plethysmography (Penh value) of mice breathing air enriched in CO2; type: in vivo
Experimental: 1/ BALB/c mice were placed in a closed chamber in which the proportion of CO2, at constant proportion of oxygen, was raised artificially to 2 (atmospheric air control), 5, 10 and 15% by injection of CO2 into the chamber every other minute. At each of these concentrations, non-invasive functional testing was carried out on the mice by plethysmography, according to the technique described by Hamelmann et al. (1997) Am J Respir Crit Care Med 156: 766-775). This technique involves assessing the respiratory distress of the mice by determining the Penh (enhanced pause) value.

[3] = test system: β-catenin; test: ELISA of β-catenin in the nucleus of pulmonary cells of mice after CO2 inhalation; type: in vivo; conditions: inhaled air with CO2 content above 10%, without decrease in oxygen, versus atmospheric air
Experimental: (§1) 2/After keeping the mice for 10 minutes in the chambers at the various concentrations of CO2 stated above, the mice were sacrificed (one hour after the start of the experiment) in order to determine the proteins β-catenin and NF-κBp65 in the nucleus of their pulmonary cells.
(§2) These two proteins are recognized markers of inflammation and of cancer. They were determined on the basis of optical density using specialized kits. β-Catenin was determined by ELISA (Catenin Enzyme Immunoassay Kit, Assay designs, Ann Arbor, Mich.) following the manufacturer's instructions. The protein NF-κB p65 was determined by another ELISA assay (TrasAM NF-κB p65 nuclear DNA based ELISA, Active Motif, Rixensart, Belgium) following the manufacturer's instructions. The values obtained, presented in the diagram in FIG. 2, are expressed relative to the total amount of proteins extracted from the cell nucleus.

[4] = test system: NF-κB p65; test: ELISA of NF-κB p65 in the nucleus of pulmonary cells of mice after CO2 inhalation; type: in vivo; conditions: inhaled air with CO2 content above 10%, without decrease in oxygen, versus atmospheric air
Experimental: as §1, §2

| Structure (SMILES) | Inflammation found in mice exposed to tobacco smoke [1] | Penh value, level relative to control ([2]; 15% CO2 in inhaled air at constant proportion of oxygen, versus atmospheric air control) | Change of Penh value ([2]; proportion of CO2 changes from 10 to 15%) | Expression of β-catenin in lung tissues [3] | Expression of NF-κBp65 in lung tissues [4] |
| --- | --- | --- | --- | --- | --- |
| [K+].[OH-] [KOH solution, potassium hydroxide] | eliminated partially or even completely | – | – | – | – |
| O=C=O [CO2, carbon dioxide] | – | 6 times | doubled | very significant increase | very significant increase |
